Literature values in patent US20080268034A1, “Solid Oral Dosage Forms of Ziprasidone Containing Colloidal Silicone Dioxide” (priority 2005, published 2008).

O=C1Cc2cc(CCN3CCN(c4nsc5ccccc45)CC3)c(Cl)cc2N1 [Ziprasidone free base, 5-[2-[4-(1,2-benzisothiazol-3-yl)-1-piperazinyl]ethyl]-6-chloro-1,3-dihydro-2H-indol-2-one]
solubility: very poor solubility
